These are literature values, as cited in US20090004105A1, “Molecular imaging of matrix metalloproteinase expression using labeled chlorotoxin” (priority 2007, published 2009).

Data set [1] deals with tumors of neuroectodermal origin. The settings on record: immunohistochemical studies, Lyons et al. 2002.
Data set [2] has as its target T1, MMP-2 presented on the surface of glioma cells (Homo sapiens, UniProt P08253).
T1 sequence (P08253 110-660): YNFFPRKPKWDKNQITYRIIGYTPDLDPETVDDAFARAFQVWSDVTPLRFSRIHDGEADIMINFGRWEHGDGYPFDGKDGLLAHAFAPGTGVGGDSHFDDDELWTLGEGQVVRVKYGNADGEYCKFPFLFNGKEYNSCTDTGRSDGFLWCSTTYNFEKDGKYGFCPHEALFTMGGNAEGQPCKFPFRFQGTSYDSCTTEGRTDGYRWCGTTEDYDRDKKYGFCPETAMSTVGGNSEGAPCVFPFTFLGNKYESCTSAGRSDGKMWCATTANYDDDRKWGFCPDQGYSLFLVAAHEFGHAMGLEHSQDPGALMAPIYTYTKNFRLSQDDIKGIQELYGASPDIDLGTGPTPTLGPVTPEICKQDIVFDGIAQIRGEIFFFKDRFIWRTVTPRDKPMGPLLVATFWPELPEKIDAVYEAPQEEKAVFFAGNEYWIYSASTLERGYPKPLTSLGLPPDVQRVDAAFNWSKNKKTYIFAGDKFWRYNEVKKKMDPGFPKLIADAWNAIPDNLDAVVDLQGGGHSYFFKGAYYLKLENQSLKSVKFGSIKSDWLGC
The settings on record: Deshane et al. 2003.

With Chlorotoxin [Cltx], the “binding to tumors of neuroectodermal origin” value in data set [1] is “specifically and selectively binds”. In addition, in data set [2], the MMP-2 inhibition entry was “specific MMP-2 inhibitor” and the “binding affinity to MMP-2 on glioma cell surface” value is “high affinity”.
